This is an account of results in patent publication EP4643843A1, “A COSMETIC OIL IN WATER EMULSION COMPOSITION COMPRISING APPLE JUICE” (Ledniowski, Dariusz, priority 2024, dated 2025).

Each structure is given as a SMILES string.

One series has as its system rat brain homogenates. Particulars: cited from earlier work.
The test system of another series is Epiderm human skin model. The conditions noted are these: pH 7.4.
A further series deals with E-cadherin. Particulars: skin substitute EpiDermFT; cited from earlier work.
Another series relates to Aquaporin 3. The conditions noted are these: skin substitute EpiDermFT; cited from earlier work.
The test system of a further series is collagenase. The conditions noted are these: cited from earlier work.
The subject of the next series is elastase. Particulars: relative to retinol; cited from earlier work.

Method for Epiderm human skin model: The irritant potential of the extract was evaluated in vitro, by the colorimetric method (MTT), using the reconstructed epidermis model "EpiDerm® (MatTek Corporation).
In order to determine the safety of birch extract in cosmetics, a method was used to determine the irritant potential using the Epiderm human skin model, which contains a multilayered differentiated epidermis. In this method, the exposure time at which a 50% reduction in the number of viable cells (ET50) occurs is assessed. This number is assessed by measuring the reduction of MTT - 3-(4,5-dimethylthiaz-2-yl)-2-5-diphenyltetrazolium bromide). Formazan, which is blue-violet in colour, is formed as a result of mitochondrial metabolism. Formazan formation allows assessment of the number of cells that have been damaged. A chemical is classified as an irritant if the cell survival rate relative to a negative sample (containing neutral solvent) is below 50%.
The test consisted of applying an appropriate amount of a solution of the test compound to the surface of the epidermis model. Birch extract solutions of 0.25 per cent and 0.5 per cent by weight were prepared, corresponding to the content of this active ingredient in cosmetic preparations. […]

Take `C=C[C@@](C)(/C=C/c1ccc(OC)cc1)CCC=C(C)C` [O-methylbakuchiol]: the lipid peroxidation entry with rat brain homogenates was “inhibited”.
In the case of `CCCCCCCCCCCCOS(=O)(=O)[O-].[Na+]` [SLS], in the series on Epiderm human skin model, the “Relative cell viability [%]” value is 6.03%.
For the molecule `CC1=C(/C=C/C(C)=C/C=C/C(C)=C/CO)C(C)(C)CCC1` [Retinol], the CDH1 gene expression with E-cadherin is listed as 9.4. In the series on Aquaporin 3, the AQP3 gene expression is 3.5. Also, in the series on collagenase, the “inhibits collagenase, effectiveness” value is recorded as “not affected at all”.
Consider `C=C[C@@](C)(/C=C/c1ccc(O)cc1)CCC=C(C)C` [Bakuchiol], for which the CDH1 gene expression with E-cadherin is on record as 21.6. Further, the “inhibits elastase, compared with retinol” value in the series on elastase is “almost nine times more strongly than retinol”. In addition, the AQP3 gene expression with Aquaporin 3 is given as 4.3. Further, in the series with collagenase, the “inhibits collagenase, effectiveness” value is listed as 50%.
